Reference: patent US9334289B2, “Cephem compound having catechol or pseudo-catechol structure” (SHIONOGI & CO., LTD., priority 2011, dated 2016)
Converted amounts (≈) assume the structure as drawn. Like-named read-outs stand apart in the source and are kept apart here.

Legend:
Assay in all cases: MIC, CLSI broth microdilution, Test Example 1
Type in all cases: cell-based
P. aeruginosa SR24 = settings: for MIC: Pseudomonas aeruginosa
A. baumannii SR27323 = settings: for MIC: Acinetobacter baumannii
Experimental: (§1) Measurement of Minimum Inhibitory Concentration (MIC: μg/mL) was conducted according to CLSI (Clinical and Laboratory Standards Institute) method, and the amount of bacteria for inoculation was 5×10^5 cfu/mL, and cation-adjusted Mueller Hinton broth containing human apo-transferrin was used as a test medium, and the experiment was conducted using broth microdilution method. The bacteria used are listed below.

E. coli ATCCBAA-199 = settings: SHV-3 ESBL producing strain, cation-adjusted Mueller Hinton broth containing human apo-transferrin, 5×10^5 cfu/mL; for MIC: Escherichia coli, ATCCBAA199, read-out: Minimum Inhibitory Concentration (MIC) E. coli ATCC BAA-199
Experimental: as §1

E. coli ATCCBAA-200 = settings: SHV-4 ESBL producing strain, cation-adjusted Mueller Hinton broth containing human apo-transferrin, 5×10^5 cfu/mL; for MIC: Escherichia coli, ATCCBAA200, read-out: Minimum Inhibitory Concentration (MIC) E. coli ATCC BAA-200
Experimental: as §1

[1] = tested on: K. pneumoniae ATCCBAA-1705; settings: for MIC: Klebsiella pneumoniae
Experimental: as §1

P. aeruginosa SR24837 = settings: for MIC: Pseudomonas aeruginosa
Experimental: as §1

P. aeruginosa SR27060 = settings: for MIC: Pseudomonas aeruginosa
Experimental: as §1

[2] = SR24, Ceftazidime resistance strain, cation-adjusted Mueller Hinton broth containing human apo-transferrin, 5×10^5 cfu/mL, read-out: Minimum Inhibitory Concentration (MIC) P. aeruginosa SR24
[3] = SR27323, OXA-23, OXA-58 carbapenemase producing strain, cation-adjusted Mueller Hinton broth containing human apo-transferrin, 5×10^5 cfu/mL, read-out: Minimum Inhibitory Concentration (MIC) A. baumannii SR27323
[4] = ATCCBAA1705, KPC-2 carbapenemase producing strain, cation-adjusted Mueller Hinton broth containing human apo-transferrin, 5×10^5 cfu/mL, read-out: Minimum Inhibitory Concentration (MIC) K. pneumoniae ATCCBAA-1705
[5] = SR24837, PER-1 ESBL producing strain, cation-adjusted Mueller Hinton broth containing human apo-transferrin, 5×10^5 cfu/mL, read-out: Minimum Inhibitory Concentration (MIC) P. aeruginosa SR24837
[6] = SR27060, IMP-1 MBL producing strain (carbapenem resistance strain), cation-adjusted Mueller Hinton broth containing human apo-transferrin, 5×10^5 cfu/mL, read-out: Minimum Inhibitory Concentration (MIC) P. aeruginosa SR27060

MIC (P. aeruginosa SR24; [2]) [µg/mL] | MIC (A. baumannii SR27323; [3]) [µg/mL] | MIC [1, 4] [µg/mL] | MIC (P. aeruginosa SR24837; [5]) [µg/mL] | MIC (P. aeruginosa SR27060; [6]) [µg/mL] | Compound | MIC (E. coli ATCCBAA-199) [µg/mL] | MIC (E. coli ATCCBAA-200) [µg/mL] | MIC (P. aeruginosa SR24; SR24, read-out: Minimum Inhibitory Concentration (MIC) P. aeruginosa SR24) [µg/mL] | MIC (A. baumannii SR27323; SR27323, read-out: Minimum Inhibitory Concentration (MIC) A. baumannii SR27323) [µg/mL] | MIC ([1]; ATCCBAA1705, read-out: Minimum Inhibitory Concentration (MIC) K. pneumoniae ATCCBAA-1705) [µg/mL] | MIC (P. aeruginosa SR24837; SR24837, read-out: Minimum Inhibitory Concentration (MIC) P. aeruginosa SR24837) [µg/mL] | MIC (P. aeruginosa SR27060; SR27060, read-out: Minimum Inhibitory Concentration (MIC) P. aeruginosa SR27060) [µg/mL] | Minimum Inhibitory Concentration (MIC) P. aeruginosa SR24 (P. aeruginosa SR24; Ceftazidime resistance strain, cation-adjusted Mueller Hinton broth containing human apo-transferrin, 5×10^5 cfu/mL) [µg/mL] | Minimum Inhibitory Concentration (MIC) A. baumannii SR27323 (A. baumannii SR27323; OXA-23, OXA-58 carbapenemase producing strain, cation-adjusted Mueller Hinton broth containing human apo-transferrin, 5×10^5 cfu/mL) [µg/mL] | Minimum Inhibitory Concentration (MIC) E. coli ATCC BAA-199 (E. coli ATCCBAA-199) [µg/mL] | Minimum Inhibitory Concentration (MIC) E. coli ATCC BAA-200 (E. coli ATCCBAA-200) [µg/mL] | Minimum Inhibitory Concentration (MIC) K. pneumoniae ATCCBAA-1705 ([1]; KPC-2 carbapenemase producing strain, cation-adjusted Mueller Hinton broth containing human apo-transferrin, 5×10^5 cfu/mL) | Minimum Inhibitory Concentration (MIC) P. aeruginosa SR24837 (P. aeruginosa SR24837; PER-1 ESBL producing strain, cation-adjusted Mueller Hinton broth containing human apo-transferrin, 5×10^5 cfu/mL) [µg/mL] | Minimum Inhibitory Concentration (MIC) P. aeruginosa SR27060 (P. aeruginosa SR27060; IMP-1 MBL producing strain (carbapenem resistance strain), cation-adjusted Mueller Hinton broth containing human apo-transferrin, 5×10^5 cfu/mL) [µg/mL]
0.25 | 0.5 | ≤ 0.031 | 1 | 0.5 | CC(C)(O/N=C(\C(=O)N[C@@H]1C(=O)N2C(c3nn[n-]n3)=C(C[N+]3(Cc4nc(-c5ccc(O)c(O)c5Cl)no4)CCCC3)CS[C@H]12)c1csc(N)n1)C(=O)[O-].[Na+] [Compound I-46] | 0.125 | 0.5 | – | – | – | – | – | – | – | – | – | – | – | –
– | – | – | – | – | CC(C)(O/N=C(\C(=O)N[C@@H]1C(=O)N2C(c3nnn[n-]3)=C(C[n+]3ccc(CNC(=O)c4ccc(O)c(O)c4Cl)cc3)CS[C@H]12)c1csc(N)n1)C(=O)[O-].[Na+] [Compound I-71] | 0.25 | 0.5 | 0.063 | 1 | ≤ 0.031 | 1 | 0.25 | – | – | – | – | – | – | –
≤ 0.031 | 0.5 (≈ 0.658 µM) | ≤ 0.031 | 0.25 (≈ 0.329 µM) | 0.5 (≈ 0.658 µM) | CC(C)(O/N=C(\C(=O)N[C@@H]1C(=O)N2C(c3nnn[nH]3)=C(C[N+]3(CCNC(=O)c4cc(O)c(O)c(F)c4)CCCC3)CS[C@H]12)c1csc(N)n1)C(=O)[O-] [Compound I-56] | 0.125 (≈ 0.165 µM) | 0.25 (≈ 0.329 µM) | – | – | – | – | – | – | – | – | – | – | – | –
– | – | – | – | – | C[N+](C)(CCNC(=O)c1ccc(O)c(O)c1Cl)CC1=C(c2nnn[n-]2)N2C(=O)C(NC(=O)C(=NOC(CC(=O)[O-])C(=O)[O-])c3csc(N)n3)C2SC1.[Na+].[Na+] (stereo not drawn) [Compound I-92] | – | – | – | – | – | – | – | 0.25 | 0.5 | 0.063 | 0.125 | ≦0.031 μg/ml | 0.25 | 2
0.25 | 0.25 | ≤ 0.031 | 0.063 | 1 | CC(C)(O/N=C(\C(=O)N[C@@H]1C(=O)N2C(c3nnn[n-]3)=C(C[N+](C)(C)CCNC(=O)c3ccc(O)c(O)c3Cl)CS[C@H]12)c1csc(N)n1)C(=O)[O-].[Na+] [Compound I-11] | 0.125 | 0.5 | – | – | – | – | – | – | – | – | – | – | – | –
0.5 | 0.5 | ≤ 0.031 | 4 | 0.5 | Nc1nc(/C(=N/O[C@@H](CC(=O)[O-])C(=O)[O-])C(=O)N[C@@H]2C(=O)N3C(c4nnn[n-]4)=C(C[N+]45CCC[C@H]4CN(C(=O)c4cc(O)c(O)c(Cl)c4)CC5)CS[C@H]23)cs1.[Na+].[Na+] (stereo partly drawn) [Compound I-4] | 0.125 | 0.5 | – | – | – | – | – | – | – | – | – | – | – | –

Compound | MIC (P. aeruginosa SR24; [2]) [µg/mL] | MIC (A. baumannii SR27323; [3]) [µg/mL] | MIC [1, 4] [µg/mL] | MIC (P. aeruginosa SR24837; [5]) [µg/mL] | MIC (P. aeruginosa SR27060; [6]) [µg/mL] | MIC (E. coli ATCCBAA-199) [µg/mL] | MIC (E. coli ATCCBAA-200) [µg/mL] | MIC (P. aeruginosa SR24; SR24, read-out: Minimum Inhibitory Concentration (MIC) P. aeruginosa SR24) [µg/mL] | MIC (A. baumannii SR27323; SR27323, read-out: Minimum Inhibitory Concentration (MIC) A. baumannii SR27323) [µg/mL] | MIC ([1]; ATCCBAA1705, read-out: Minimum Inhibitory Concentration (MIC) K. pneumoniae ATCCBAA-1705) [µg/mL] | MIC (P. aeruginosa SR24837; SR24837, read-out: Minimum Inhibitory Concentration (MIC) P. aeruginosa SR24837) [µg/mL] | MIC (P. aeruginosa SR27060; SR27060, read-out: Minimum Inhibitory Concentration (MIC) P. aeruginosa SR27060) [µg/mL] | Minimum Inhibitory Concentration (MIC) P. aeruginosa SR24 (P. aeruginosa SR24; Ceftazidime resistance strain, cation-adjusted Mueller Hinton broth containing human apo-transferrin, 5×10^5 cfu/mL) [µg/mL] | Minimum Inhibitory Concentration (MIC) A. baumannii SR27323 (A. baumannii SR27323; OXA-23, OXA-58 carbapenemase producing strain, cation-adjusted Mueller Hinton broth containing human apo-transferrin, 5×10^5 cfu/mL) [µg/mL] | Minimum Inhibitory Concentration (MIC) E. coli ATCC BAA-199 (E. coli ATCCBAA-199) [µg/mL] | Minimum Inhibitory Concentration (MIC) E. coli ATCC BAA-200 (E. coli ATCCBAA-200) [µg/mL] | Minimum Inhibitory Concentration (MIC) K. pneumoniae ATCCBAA-1705 ([1]; KPC-2 carbapenemase producing strain, cation-adjusted Mueller Hinton broth containing human apo-transferrin, 5×10^5 cfu/mL) | Minimum Inhibitory Concentration (MIC) P. aeruginosa SR24837 (P. aeruginosa SR24837; PER-1 ESBL producing strain, cation-adjusted Mueller Hinton broth containing human apo-transferrin, 5×10^5 cfu/mL) [µg/mL] | Minimum Inhibitory Concentration (MIC) P. aeruginosa SR27060 (P. aeruginosa SR27060; IMP-1 MBL producing strain (carbapenem resistance strain), cation-adjusted Mueller Hinton broth containing human apo-transferrin, 5×10^5 cfu/mL) [µg/mL]
CC(C)(O/N=C(\C(=O)N[C@@H]1C(=O)N2C(c3nnn[n-]3)=C(C[N+]34CCC(CNC(=O)c5ccc(O)c(O)c5Cl)(CC3)CC4)CS[C@H]12)c1csc(N)n1)C(=O)[O-].[Na+] [Compound I-10] | 0.25 | 0.5 | ≤ 0.031 | 2 | 2 | 0.5 | 1 | – | – | – | – | – | – | – | – | – | – | – | –
CC(C)(O/N=C(\C(=O)N[C@@H]1C(=O)N2C(c3nnn[n-]3)=C(C[N+]34CCC(CNC(=O)c5cc(=O)c(O)c[nH]5)(CC3)CC4)CS[C@H]12)c1csc(N)n1)C(=O)[O-].[Na+] [Compound I-9] | 0.25 | 1 | 0.063 | 2 | 4 | 0.25 | 0.5 | – | – | – | – | – | – | – | – | – | – | – | –
CC(C)(O/N=C(\C(=O)N[C@@H]1C(=O)N2C(c3nnn[n-]3)=C(C[N+]34CCC(CNC(=O)c5cc(=O)c(O)cn5O)(CC3)CC4)CS[C@H]12)c1csc(N)n1)C(=O)[O-].[Na+] [Compound I-18] | 0.5 | 0.125 | ≤ 0.031 | 1 | 2 | 0.125 | 0.25 | – | – | – | – | – | – | – | – | – | – | – | –
